In general, IC50 refers to the concentration needed to halve the response being measured. The low end stands for inhibition by little substance, the high end for a need for much substance.

SMILES strings stand for the structures. Where a name gives a salt, the structure may show the parent alone.

The target of this assay is MAGL (Homo sapiens (Human), UniProt Q99685). Put plainly: 2-AG assay (MAGL inhibitory activity, hydrolysis of 2-arachidonoylglycerol followed by mass spectrometry). The class given is biochemical. The note with it: 50 pM MAGL protein, 15 min pre-incubation, 30 min incubation at RT. Put shortly: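 Human MAGL (50 pM final) preincubated 15 min at RT with compound (3-fold dilutions, 12.5 μM to 0.8 pM final) in 50 mM TRIS, 1 mM EDTA, 0.01% Tween-20, 2.5% DMSO. Reaction with […] 2-AG ran 30 min at RT, then was quenched with acetonitrile containing d8-arachidonic acid. Arachidonic acid measured by SPE–triple-quad MS (negative ESI), activity from the arachidonic/d8-arachidonic acid intensity ratio.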
MAGL, sequence (Q99685 whole entry, species assumed): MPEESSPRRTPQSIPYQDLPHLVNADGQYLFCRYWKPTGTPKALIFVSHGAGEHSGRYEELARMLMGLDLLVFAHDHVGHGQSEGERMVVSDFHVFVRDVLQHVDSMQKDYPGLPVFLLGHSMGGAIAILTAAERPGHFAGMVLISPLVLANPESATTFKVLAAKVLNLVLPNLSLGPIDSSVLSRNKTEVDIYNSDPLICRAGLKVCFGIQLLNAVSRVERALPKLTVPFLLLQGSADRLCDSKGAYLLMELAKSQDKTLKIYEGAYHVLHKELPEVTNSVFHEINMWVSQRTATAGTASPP
Regarding `CC1c2nn(C)c(-c3cc(F)cc(F)c3)c2CCN1C(=O)c1ccc(CCC2CNC(=O)C2)cc1Cl` (centres unmarked) [Example 44, 4-[2-[3-Chloro-4-[3-(3,5-difluorophenyl)-2,7-dimethyl-5,7-dihydro-4H-pyrazolo[3,4-c]pyridine-6-carbonyl]phenyl]ethyl]pyrrolidin-2-one], the IC50 is 0.261 µM. That is a sub-micromolar value.

Compound `C[C@H]1c2nn(C)c(-c3cc(F)cc(F)c3)c2CCN1C(=O)c1ncn(-c2ccnc(O)c2)n1` [Example 112, [(7S)-3-(3,5-difluorophenyl)-2,7-dimethyl-5,7-dihydro-4H-pyrazolo[3,4-c]pyridin-6-yl]-[1-(2-hydroxy-4-pyridyl)-1,2,4-triazol-3-yl]methanone] displayed an IC50 of 1.66 µM.

`C[C@H]1c2nn(C)c(-c3cncc(C(F)(F)F)n3)c2CCN1C(=O)c1ncn(-c2ccc[nH]c2=O)n1` [Example 67, 3-[3-[(7S)-2,7-dimethyl-3-[6-(trifluoromethyl)pyrazin-2-yl]-5,7-dihydro-4H-pyrazolo[3,4-c]pyridine-6-carbonyl]-1,2,4-triazol-1-yl]-1H-pyridin-2-one] showed an IC50 of 4.22 µM. Against the preceding compound, the IC50 is about 2.5-fold higher.

With `C[C@H]1c2nn(C)c(-c3cc(Cl)cc(S(N)(=O)=O)c3)c2CCN1C(=O)c1ncn(-c2ccc[nH]c2=O)n1` [Example 62, 3-Chloro-5-[(7S)-2,7-dimethyl-6-[1-(2-oxo-1H-pyridin-3 yl)-1,2,4-triazole-3-carbonyl]-5,7-dihydro-4H-pyrazolo[3,4-c]pyridin-3-yl]benzenesulfonamide], the IC50 came to 0.326 µM.

Consider `C[C@H]1c2nn(C)c(-c3cc(F)cc(F)c3)c2CCN1C(=O)c1cc(F)cc(-c2ccc(=O)[nH]c2)c1Cl` [Example 29, 5-[2-Chloro-3-[(7S)-3-(3,5-difluorophenyl)-2,7-dimethyl-5,7-dihydro-4H-pyrazolo[3,4-c]pyridine-6-carbonyl]-5-fluoro-phenyl]-1H-pyridin-2-one], for which the IC50 worked out at 0.001 µM.

Take `C[C@@H]1c2nn(C)c(-c3cc(F)c(F)c(F)c3)c2CCN1C(=O)c1cc(F)cc(-c2c[nH]c(C#N)c2)c1Cl` [Example 93, 4-[2-chloro-3-[(7R)-2,7-dimethyl-3-(3,4,5-trifluorophenyl)-5,7-dihydro-4H-pyrazolo[3,4-c]pyridine-6-carbonyl]-5-fluoro-phenyl]-1H-pyrrole-2-carbonitrile]: the IC50 was 0.734 µM.

In turn, `CC1c2nn(C)c(-c3cc(Cl)cc(C4(C(N)=O)CC4)c3)c2CCN1C(=O)c1cc(F)cc(OCC2CNC(=O)C2)c1Cl` (centres unmarked) [Example 70, 1-[3-chloro-5-[6-[2-chloro-5-fluoro-3-[(5-oxopyrrolidin-3-yl)methoxy]benzoyl]-2,7-dimethyl-5,7-dihydro-4H-pyrazolo[3,4-c]pyridin-3-yl]phenyl]cyclopropanecarboxamide] showed an IC50 of 0.042 µM. Compared with the last compound, the IC50 is about 17-fold lower.

Take `C[C@H]1c2nn(C)c(-c3cc(F)cc(F)c3)c2CCN1C(=O)c1cc(F)cc(OCC2CNC(=O)O2)c1Cl` (single isomer, unassigned) [Example 50, 5-[[2-Chloro-3-[3-(3,5-difluorophenyl)-2,7-dimethyl-5,7-dihydro-4H-pyrazolo[3,4-c]pyridine-6-carbonyl]-5-fluoro-phenoxy]methyl]oxazolidin-2-one]: half-maximal inhibition (IC50) required 0.005 µM.

Compound `COCCOc1cc(Cl)cc(-c2c3c(nn2C)[C@H](C)N(C(=O)c2cccc(OC)c2Cl)CC3)c1` [Example 69, [(7S)-3-[3-chloro-5-(2-methoxyethoxy)phenyl]-2,7-dimethyl-5,7-dihydro-4H-pyrazolo[3,4-c]pyridin-6-yl]-(2-chloro-3-methoxy-phenyl)methanone] displayed an IC50 of 0.003 µM.

Take `Cc1c(C(=O)N2CCc3c(nn(C)c3-c3cc(F)cc(F)c3)C2C)cccc1N1CCNC1=O` (centres unmarked) [Example 25, 1-[3-[3-(3,5-Difluorophenyl)-2,7-dimethyl-5,7-dihydro-4H-pyrazolo[3,4-c]pyridine-6-carbonyl]-2-methyl-phenyl]imidazolidin-2-one]: half-maximal inhibition (IC50) was put at 0.892 µM.

`COc1cccc(C(=O)N2CCc3c(nn(C)c3CNC3(C(F)(F)F)CC3)[C@@H]2C)c1Cl` [Example 11, (2-Chloro-3-methoxy-phenyl)-[(7S)-2,7-dimethyl-3-[[[1-(trifluoromethyl)cyclopropyl]amino]methyl]-5,7-dihydro-4H-pyrazolo[3,4-c]pyridin-6-yl]methanone] yielded an IC50 of 0.464 µM. Against the preceding compound, the IC50 is about 1.9-fold lower.

In the case of `CC1c2nn(C)c(-c3cc(Cl)cc(C4(NS(C)(=O)=O)CC4)c3)c2CCN1C(=O)c1cc(F)cc(-c2ccc(=O)[nH]c2)c1Cl` (centres unmarked) [Example 55, N-[1-[3-Chloro-5-[6-[2-chloro-5-fluoro-3-(6-oxo-1H-pyridin-3-yl)benzoyl]-2,7-dimethyl-5,7-dihydro-4H-pyrazolo[3,4-c]pyridin-3-yl]phenyl]cyclopropyl]methanesulfonamide], half-maximal inhibition (IC50) was put at 0.007 µM.

Regarding `C[C@@H]1c2nn(C)c(-c3cc(Cl)cc(C4(NS(C)(=O)=O)CC4)c3)c2CCN1C(=O)c1cc(F)cc(-c2c[nH]c(C#N)c2)c1Cl` [Example 86, N-[1-[3-chloro-5-[(7R)-6-[2-chloro-3-(5-cyano-1H-pyrrol-3-yl)-5-fluoro-benzoyl]-2,7-dimethyl-5,7-dihydro-4H-pyrazolo[3,4-c]pyridin-3-yl]phenyl]cyclopropyl]methanesulfonamide], the IC50 worked out at 1.01 µM. This IC50 lies about 140-fold higher than the previous one.

For `CC1c2nn(C)c(-c3cc(Cl)cc(C4(S(C)(=O)=O)CC4)c3)c2CCN1C(=O)c1cc(F)cc(-c2ccc(=O)[nH]c2)c1Cl` (centres unmarked) [Example 60, 5-[2-Chloro-3-[3-[3-chloro-5-(1-methylsulfonylcyclopropyl)phenyl]-2,7-dimethyl-5,7-dihydro-4H-pyrazolo[3,4-c]pyridine-6-carbonyl]-5-fluoro-phenyl]-1H-pyridin-2-one], the midpoint of inhibition, the IC50, lay at 0.138 µM. Against the preceding compound, the IC50 is about 7.3-fold lower.

With `CC1c2nn(C)c(-c3cc(F)cc(F)c3)c2CCN1C(=O)c1cc(F)cc(OCC2(C(F)(F)F)CC2)c1Cl` (centres unmarked) [Example 27, [2-Chloro-5-fluoro-3-[[1-(trifluoromethyl)cyclopropyl]methoxy]phenyl]-[3-(3,5-difluorophenyl)-2,7-dimethyl-5,7-dihydro-4H-pyrazolo[3,4-c]pyridin-6-yl]methanone], inhibition was half-maximal at 0.088 µM (IC50).

Consider `COc1cccc(C(=O)N2CCn3c(-c4cccc(Cl)c4)nnc3[C@@H]2C)c1Cl` [Example 116, (2-chloro-3-methoxy-phenyl)-[(5S)-9-(3-chlorophenyl)-5-methyl-1,4,7,8-tetrazabicyclo[4.3.0]nona-1(9),6-dien-4-yl]methanone], for which the midpoint of inhibition, the IC50, lay at 2.38 µM.

`CC1c2nn(C)c(-c3cc(F)cc(F)c3)c2CCN1C(=O)c1cc(F)cc(CNC2CNC(=O)C2)c1Cl` (centres unmarked) [Example 106, 4-[[2-chloro-3-[3-(3,5-difluorophenyl)-2,7-dimethyl-5,7-dihydro-4H-pyrazolo[3,4-c]pyridine-6-carbonyl]-5-fluoro-phenyl]methylamino]pyrrolidin-2-one;hydrochloride] showed an IC50 of 0.0124 µM.

`C[C@H]1c2nn(C)c(-c3cc(F)cc(F)c3)c2CCN1C(=O)c1ccc(CCC2CNC(=O)C2)cc1Cl` (stereo in doubt) [Example 47, 4-[2-[3-Chloro-4-[3-(3,5-difluorophenyl)-2,7-dimethyl-5,7-dihydro-4H-pyrazolo[3,4-c]pyridine-6-carbonyl]phenyl]ethyl]pyrrolidin-2-one] displayed an IC50 of 0.127 µM.

The compound `C[C@@H]1c2nn(C)c(-c3cc(Cl)cc(C4(C(N)=O)CC4)c3)c2CCN1C(=O)c1cc(F)cc(-c2c[nH]c(C#N)c2)c1Cl` [Example 72, 1-[3-chloro-5-[(7R)-6-[2-chloro-3-(5-cyano-1H-pyrrol-3-yl)-5-fluoro-benzoyl]-2,7-dimethyl-5,7-dihydro-4H-pyrazolo[3,4-c]pyridin-3-yl]phenyl]cyclopropanecarboxamide] gave an IC50 of 0.062 µM. Against the preceding compound, the IC50 is about 2-fold lower.

Compound `C[C@H]1c2nn(C)c(-c3cc(F)cc(F)c3)c2CCN1C(=O)c1cc(F)cc(N2CC3(CCN3)C2)c1Cl` [Example 111, [2-chloro-3-(1,6-diazaspiro[3.3]heptan-6-yl)-5-fluoro-phenyl]-[(7S)-3-(3,5-difluorophenyl)-2,7-dimethyl-5,7-dihydro-4H-pyrazolo[3,4-c]pyridin-6-yl]methanone;2,2,2-trifluoroacetic acid] returned a concentration for half-maximal inhibition (IC50) of 0.0516 µM.

(Values after patent publication US20250059185A1 (Hoffmann-La Roche Inc., priority 2021, published 2025).)
